# Measurements published in paper PMC11312998, “Molecular Pro-Apoptotic Activities of Flavanone Derivatives in Cyclodextrin Complexes: New Implications for Anticancer Therapy” (International Journal of Molecular Sciences, 2024).
# Columns and labels:
# Assay type in all cases: cell-based, human
# Hec-1-A [1] = experiment: Superoxide anion generation, DHE probe; details: IC50 concentration, 24 h
# Method: (§1) The level of superoxide anion (O2^•−) was determined by microplate spectrofluorimetry with dihydroethidium (hydroethidine, DHE) (Life Technologies, Carlsbad, CA, USA), which is the most commonly used fluorogenic probe for monitoring the intracellular production of superoxide anion O2^•− [41]. […] Thanks to this shift, DHE can be used as a sensitive probe for cellular ROS. The reaction between superoxide and DHE generates a highly specific red fluorescent product, 2-hydroxyethidium (2-OH-E^+).
# (§2) The cells were seeded in black 96-well fluorometric microplates at a density of 10 × 10^3 cells per well. […] After incubation, the medium was removed, the cell monolayer in the wells was washed twice with HBSS (140 mM NaCl, 5 mM KCl, 0.8 mM MgCl2, 1.8 mM CaCl2, 1 mM Na2HPO4, 10 mM HEPES and 1% glucose) and 50 μL of DHE solution in HBSS was added to each well (final probe concentration 5 μmol/L). Cells were incubated with the probe for 30 min in the dark in an incubator (37 °C), and then fluorescence was measured. The measurement was performed at the following excitation and fluorescence emission wavelengths: λex = 498 nm/λem = 582 nm. Fluorescence measurements were made on a Perkin-Elmer LS-5B spectrofluorometer (MA, USA). Fluorescence intensity values for control cells were arbitrarily set as 100%. The results are presented as percentages of control cell values, calculated relative to the fluorescence intensity of the controls (100%): sample fluorescence was calculated as Δf in relation to the controls.
# RBCs = experiment: Erythrocyte morphology, phase contrast microscopy; details: 100 µmol/L; 24 h, 37 °C
# Method: The experiments on human blood were performed in accordance with Polish national guidelines, and the study protocols were approved by the Bioethics Committee of the Medical University of Lodz, Poland: approval no (RNN/104/20/KE). The blood samples were obtained from healthy donors at the Blood Donation Centre in Lodz. The procedure for […] for erythrotoxicity studies is given in a previous paper. The influence of the synthesized compounds, together with a reference compound on RBC membrane integrity, was performed by lysis assay, described elsewhere. Briefly, 2% RBC suspension in 0.9% NaCl was incubated at 37 °C for 24 h with the tested compounds at concentrations of 100 µmol/L, 50 µmol/L, 25 µmol/L, 10 µmol/L and 1 µmol/L. The samples were centrifuged at 3000 rpm for 10 min, and the absorbance of the supernatant was measured at 550 nm. The results are presented as a percentage of hemolysis where a sample containing 10 μL of 2.0% v/v Triton X-100 was regarded as a positive control contributing to 100% of hemolysis. A sample containing saline solution represented the spontaneous hemolysis of RBCs (control). The experiments were conducted using at least three different biological materials (n = 3). […] Additionally, erythrocyte morphology was evaluated using a phase contrast Opta-Tech inverted microscope at 400× magnification.
# HCC38 [2] = experiment: Mitochondrial potential (ΔΨm), JC-1 method; details: IC50 concentration, 24 h
# Excerpt: 5,5,6,6-Tetrachloro-1,1,3,3-tetraethylbenzimidazolylcarbocyanine iodide (JC-1) is a cationic carbocyanine dye commonly used as a fluorescent probe to detect mitochondrial membrane depolarization. In living cells with an intact mitochondrial membrane, the lipophilic JC-1 penetrates the negatively charged mitochondrial matrix as a monomer. It then forms fluorescent aggregates with red-orange fluorescence (λex = 514 nm, λem = 590 nm). During depolarization of the mitochondrial membrane or in apoptotic cells, the concentration of JC-1 decreases, and the aggregates disintegrate into monomers emitting green fluorescence (λex = 514 nm, λem = 529 nm). The fluorescence ratio of aggregates (λem = 590 nm) and monomers (λem = 529 nm)—590 nm/529 nm—reflects the level of damage to the mitochondrial membrane.
# The cells were seeded in black 96-well fluorometric microplates at a density of 10 × 10^3 cells per well. […] After incubation with the compounds, the medium was removed, the cell monolayer in the wells was washed twice with HBSS (140 mM NaCl, 5 mM KCl, 0.8 mM MgCl2, 1.8 mM CaCl2, 1 mM Na2HPO4, 10 mM HEPES and 1% glucose) and 50 μL of JC-1 solution in HBSS was added to each well (final probe concentration 5 μmol/L). Cells were incubated with the probe for 30 min in the dark in an incubator (37 °C). After incubation, the probe was removed and replaced with fresh HBSS buffer. Fluorescence measurements (Perkin-Elmer LS-5B spectrofluorometer, MA, USA) of JC-1 monomers and aggregates were made at the following excitation and emission wavelengths: λex = 514 nm, λem = 529 nm (monomers), λex = 514 nm, λem = 590 nm (aggregates). The results of the tested samples are presented as the percentage fluorescence ratio of JC-1 aggregates and JC-1 monomers relative to the fluorescence ratio of JC-1 aggregates and JC-1 monomers of the control, which was assumed to be 100%.
# A positive control was formed of cells pre-incubated with 5 µmol/L carbonyl cyanide m-chlorophenylhydrazone (CCCP), a chemical inhibitor of oxidative phosphorylation that acts by uncoupling the protons flowing along the electrochemical gradient from phosphorylation.
# HCC38 [3] = experiment: Superoxide anion generation, DHE probe; details: IC50 concentration, 24 h
# Method: as §1, §2
# HCC38 [4] = experiment: Nitric oxide (RNS) generation, DAF-FM diacetate probe; details: IC50 concentration, 24 h
# Method: (§3) Diaminofluorescein-FM diacetate (DAF-FM diacetate, Invitrogen, Carlsbad, CA, USA), is a widely employed cell permeant fluorescent reagent for the detection and quantification of reactive nitrogen species (RNS), particularly nitric oxide (NO). […] However, upon reaction with NO, it undergoes a transformation that yields a highly fluorescent benzotriazole derivative (excitation/emission maxima: λex = 495, λem = 515 nm).
# (§4) The cells were seeded in black 96-well fluorometric microplates at a density of 10 × 10^3 cells per well. […] After incubation with the compounds, the medium was removed, the cell monolayer in the wells was washed twice with HBSS (140 mM NaCl, 5 mM KCl, 0.8 mM MgCl2, 1.8 mM CaCl2, 1 mM Na2HPO4, 10 mM HEPES and 1% glucose) and 50 μL of DAF-FM diacetate solution in HBSS was added to each well (final probe concentration 5 μmol/L). Cells were incubated with the probe for 30 min in the dark in an incubator (37 °C). After incubation, the probe was removed and replaced with fresh HBSS buffer and then incubated for an additional 30 min to allow for complete de-esterification of the intra cellular diacetates. After this time, the fluorescence was measured. The measurement was performed at the following excitation and fluorescence emission wavelengths: λex = 495 nm/λem = 515 nm. Fluorescence was measured on a Perkin-Elmer LS-5B spectrofluorometer (MA, USA). Fluorescence intensity values for control cells were arbitrarily set as 100%. The results are presented as percentages of control cells calculated on the basis of a comparison of the fluorescence intensity ratio of test samples and controls (100%) (fluorescence of samples was calculated as Δf in relation to the control).
# Hec-1-A [5] = experiment: as above; details: IC50 concentration, 24 h
# Method: as §3, §4
smiles,measurement,setting,value
COc1cccc(/C=C2/C(=O)c3ccccc3OC2c2ccccc2)c1 (stereo not drawn) [Compound 3],rise of superoxide anion level compared to the control (DHE probe),Hec-1-A [1],approximately 20%
same,RBC morphology (in words),RBCs,appearance of single eryptocytes
O=C1/C(=C/c2ccccc2)C(c2ccccc2)Oc2ccccc21 (stereo not drawn) [Compound 5],change in mitochondrial potential (in words),HCC38 [2],strong hyperpolarization
O=C1/C(=C/c2ccccc2)COc2ccccc21 [Compound 1],increase in superoxide anion / ROS relative to control (DHE probe),HCC38 [3],approximately 20%
same,increase in nitric oxide production (DAF-FM),HCC38 [4],approximately 15%
same,increase in nitric oxide production (DAF-FM),Hec-1-A [5],approximately 20%
